Assay [1] has as its target T1, insulin receptor (InsR Kinase Assay) (Homo sapiens, UniProt P06213).
T1 construct: commercial kinase from InsR Kinase Assay (Promega)
The experiment in a line: InsR kinase assay, ADP-Glo (ADP production). The note with it: 50 μM ATP, substrate peptide, room temperature; turnover to ADP only. In kind it is biochemical.

Assay [2] deals with T1, insulin receptor (InsR Kinase Assay). The experiment in a line: InsR kinase assay, ADP-Glo (ADP production). In kind it is biochemical. The note with it: activator; 50 μM ATP, substrate peptide, room temperature, 60 min. On the technique in general: ADP-Glo first removes unused ATP, then detects ADP through luciferase.
Assay [3] concerns the target T2, IRβ (unphosphorylated beta subunit of insulin receptor) (Homo sapiens, UniProt P06213).
T2 construct: gene INSR; beta subunit, commercial recombinant protein; unphosphorylated; immobilised on CM5 chip
The experiment in a line: surface plasmon resonance (Biacore T200), IRβ immobilised on CM5. In kind it is binding.

T1 sequence (P06213 1011-1382 limits assumed): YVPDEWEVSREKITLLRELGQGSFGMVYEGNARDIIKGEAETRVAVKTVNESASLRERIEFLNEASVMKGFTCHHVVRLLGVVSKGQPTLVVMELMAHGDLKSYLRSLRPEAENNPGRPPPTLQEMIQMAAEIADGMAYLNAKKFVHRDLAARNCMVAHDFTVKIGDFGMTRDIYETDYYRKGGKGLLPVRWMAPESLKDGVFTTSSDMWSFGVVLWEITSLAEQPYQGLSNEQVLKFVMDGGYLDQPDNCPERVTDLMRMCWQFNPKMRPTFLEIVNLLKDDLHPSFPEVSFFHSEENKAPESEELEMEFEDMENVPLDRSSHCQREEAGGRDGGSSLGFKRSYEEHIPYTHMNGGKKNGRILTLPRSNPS
T2 sequence (P06213 763-1382 limits assumed): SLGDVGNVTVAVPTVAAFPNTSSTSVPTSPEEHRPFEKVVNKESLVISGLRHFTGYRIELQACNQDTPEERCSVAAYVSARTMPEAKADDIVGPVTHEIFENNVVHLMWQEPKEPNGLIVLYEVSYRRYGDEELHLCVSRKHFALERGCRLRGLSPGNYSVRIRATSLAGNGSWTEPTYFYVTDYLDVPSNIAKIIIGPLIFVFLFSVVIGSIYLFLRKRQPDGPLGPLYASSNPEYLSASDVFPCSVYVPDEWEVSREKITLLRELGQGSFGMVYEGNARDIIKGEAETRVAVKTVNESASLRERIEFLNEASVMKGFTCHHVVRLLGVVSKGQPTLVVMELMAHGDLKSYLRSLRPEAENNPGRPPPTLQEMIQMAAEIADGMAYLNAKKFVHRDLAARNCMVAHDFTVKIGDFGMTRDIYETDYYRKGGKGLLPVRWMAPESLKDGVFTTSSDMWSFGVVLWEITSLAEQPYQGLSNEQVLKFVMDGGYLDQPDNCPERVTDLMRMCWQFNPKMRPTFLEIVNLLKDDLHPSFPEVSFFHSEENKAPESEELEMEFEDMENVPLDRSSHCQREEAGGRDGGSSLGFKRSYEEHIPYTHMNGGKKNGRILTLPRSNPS

Consider `Nc1ncnc2c1ncn2[C@@H]1O[C@H](COP(=O)(O)OP(=O)(O)OP(=O)(O)O)[C@@H](O)[C@H]1O` [ATP], for which, in assay [1], the “InsR kinase assay, ADP-Glo (ADP production)” value is recorded as “found a linear curve of ADP production (consumption of ATP by insulin receptor)”. Regarding `CC1=NN(c2ccc(C(=O)O)cc2)C(=O)C1=Cc1ccc(-c2cc(C)c(C)cc2[N+](=O)[O-])o1` [C646], the “% increase of kinase activity at 100 nM” value in assay [2] is 50%. This compound also yielded a Kd in assay [3] of 4.34 µM.

For orientation: Kd means the constant that tells how readily two partners part at equilibrium. Lower therefore signals a tighter complex.

(Values after publication PMC8850660, “The P300 acetyltransferase inhibitor C646 promotes membrane translocation of insulin receptor protein substrate and interaction with the insulin receptor” (The Journal of Biological Chemistry, 2022).)
